Reference: patent US20260335299A1, “SUBSTITUTED OXOISOINDOLINYL PIPERIDINE-2,6-DIONE COMPOUND AS ANTICANCER AGENT” (BRISTOL-MYERS SQUIBB COMPANY, priority 2023, published 2026)
Read-outs that look alike come from different tables or passages of the source.

Key:
IKZF1 Ikaros = IKZF1 Ikaros (Homo sapiens, UniProt Q13422+Q96SW2); experiment: Human Regulatory T Cell Degradation Assay (Ikaros); format: cell-based; conditions: human regulatory T cells, 20 h
Procedure: Cryopreserved human regulatory T cells were thawed in RPMI+10% FBS+20 ng/mL IL-2. After being spun at 1200 rpm for 5 mins, the cells were resuspended in RPMI+10% FBS+20 ng/ml and rested at 37° C. with 5% CO2 for 3 hours. The cells were then plated at 40,000 cells/well in 40 μL RPMI+10% FBS+20 ng/mL human IL-2 in a 384 well cell culture plate prior to using acoustic dispensing technology (ECHO 555) for adding compounds of interest. Cell cultures were incubated for 20 hours at 37° C. and 5% CO2. In order to facilitate analysis, cell cultures were spun down at 1200 rpm for 5 minutes and the supernatant was discarded using an EL406 plate washer. After washing three times with […] PBS, cell pellets were resuspended in 50 μL of […] viability staining solution (Life Technologies, Cat #L34975) and incubated for 30 minutes on ice protected from light. Cells were washed three times with 70 μL PBS+0.5% BSA using an EL406 plate washer. After shaking the plate to dislodge the cell pellet, cells were resuspended in 50 μL of Fixation Buffer (eBioScience FoxP3 buffer set 00-5523-00) for 60 minutes at room temperature. After centrifuging and discarding the supernatant, cells were permeabilized with 50 μL of permeabilization buffer (eBioScience FoxP3 buffer set 00-5523-00) for 10 minutes at room temperature. Following permeabilization, cells were spun down and the supernatant was replaced with 30 μL fluorescently labelled antibodies against the intracellular targets Helios (Helios-APC [BioLegend, Cat #137222, 1:50])]), Aiolos, and Ikaros 1× Permeabilization buffer and staining reactions were incubated for 1 hour at room temperature; protected from light. Subsequently, […] Permeabilization buffer was added prior to centrifuging the cells and discarding the supernatant. Stained cells were resuspended in 30 μL of flow cytometry staining buffer (PBS+0.5% BSA) and analyzed using an Intellicyt Ique Plus flow cytometer.
(§1) Table B-1 lists the maximum observed degradation of the IKZF1 protein and IKZF2 protein as measured in the Human Regulatory T Cell Degradation assay. The results in Table B-1 were rounded to two digits. In the Human Regulatory T Cell Degradation assay, a value of 100% indicated no detectable protein remaining or complete degradation of the protein; and a value of 0% indicated no detectable degradation of the protein by the test compound.

IKZF3 Aiolos = IKZF3 Aiolos (Homo sapiens, UniProt Q96SW2+Q9UKT9); experiment: Human CD8+ T Cell Reprogramming (Degradation) Assay (Aiolos); format: cell-based; design: Cryopreserved healthy donor human peripheral blood mononuclear cells (PBMC); endogenous in cells; host or cells: CD8+ T cells within healthy donor human PBMC; conditions: 24 h
Procedure: Cryopreserved healthy donor human peripheral blood mononuclear cells (PBMC) from healthy donors were thawed and seeded at 500,000 cells/well of 96-well round bottom plates in RPMI 1640 media (Gibco) supplemented with 10% FBS, Pen/Strep (Gibco), MEM-NEAA (Gibco), and sodium pyruvate (Gibco). Cells were treated with titrated doses of compound for 24 hours at 37° C., 5% CO2 before analyzing by flow cytometry.
For flow cytometry staining, cells were washed twice with flow cytometry staining buffer (Thermo Fisher) and incubated in Human Tru-stain Fc block (Biolegend) for 10 minutes before adding eFluor780 viability dye (Thermo Fisher) and surface marker antibody cocktail containing LD-eFluor780, CD3-BUV-395, CD4-BUV805, CD8-FITC, and CD25-BV605 for 30 minutes at 4° C. Cells were then fixed and permeabilized by incubation with permeabilization buffer (eBioscience FoxP3 buffer set 00-5523-00) for 30 minutes at 4° C. as per the kit manufacturer's instructions. Cells were washed twice with the Perm/Wash buffer supplied in the kit as per the manufacturer's instructions and incubated overnight at 4° C. with an intracellular antibody cocktail comprised of antibodies specific for the transcription factors (i.e., Foxp3-BV421, HELIOS-PE-Cy7, EOS-PE, IKAROS-PECF594, AIOLOS-AF647). Cells were washed twice with Perm/Wash buffer and resuspended in flow cytometry staining buffer (Thermo Fisher) prior to acquisition. Sample acquisition and analysis was performed using a BD LSRFortessa (BD Biosciences) flow cytometer. Single-stain controls for each fluorochrome were prepared using UltraComp eBead Compensation Beads (Thermo Fisher). Data were analyzed using FlowJo version 10 and GraphPad Prism Software.
as §1, with “D-1” for “B-1”, “IKZF3” for “IKZF2”, “CD8^+” for “Regulatory”, “Reprogramming” for “Degradation”

Sequence of IKZF3 Aiolos (Q9UKT9 whole entry): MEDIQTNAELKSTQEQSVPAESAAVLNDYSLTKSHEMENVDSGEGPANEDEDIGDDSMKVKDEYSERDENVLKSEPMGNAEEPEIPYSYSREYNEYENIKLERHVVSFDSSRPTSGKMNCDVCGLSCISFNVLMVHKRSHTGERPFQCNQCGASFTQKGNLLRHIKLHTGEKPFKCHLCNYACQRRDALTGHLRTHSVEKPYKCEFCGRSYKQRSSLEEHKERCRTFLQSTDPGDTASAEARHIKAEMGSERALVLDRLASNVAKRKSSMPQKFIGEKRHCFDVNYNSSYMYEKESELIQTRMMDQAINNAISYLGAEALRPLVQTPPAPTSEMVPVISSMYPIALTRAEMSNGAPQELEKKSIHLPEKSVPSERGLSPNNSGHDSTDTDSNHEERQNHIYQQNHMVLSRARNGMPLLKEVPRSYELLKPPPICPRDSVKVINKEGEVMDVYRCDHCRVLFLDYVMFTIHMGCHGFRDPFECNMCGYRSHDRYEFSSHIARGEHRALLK
Sequence of IKZF3 Aiolos (Q96SW2 whole entry): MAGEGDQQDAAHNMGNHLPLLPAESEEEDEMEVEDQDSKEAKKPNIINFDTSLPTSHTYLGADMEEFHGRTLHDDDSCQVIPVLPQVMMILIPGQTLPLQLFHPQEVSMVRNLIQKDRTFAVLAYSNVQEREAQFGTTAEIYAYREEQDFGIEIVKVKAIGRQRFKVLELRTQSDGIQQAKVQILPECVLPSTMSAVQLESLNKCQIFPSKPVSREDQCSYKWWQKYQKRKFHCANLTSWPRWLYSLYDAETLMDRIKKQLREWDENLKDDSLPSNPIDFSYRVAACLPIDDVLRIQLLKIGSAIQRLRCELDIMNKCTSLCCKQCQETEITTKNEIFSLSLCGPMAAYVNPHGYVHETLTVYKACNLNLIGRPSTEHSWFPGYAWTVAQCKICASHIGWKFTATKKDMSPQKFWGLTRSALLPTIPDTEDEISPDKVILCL
Sequence of IKZF3 Aiolos (Q16531 whole entry partner): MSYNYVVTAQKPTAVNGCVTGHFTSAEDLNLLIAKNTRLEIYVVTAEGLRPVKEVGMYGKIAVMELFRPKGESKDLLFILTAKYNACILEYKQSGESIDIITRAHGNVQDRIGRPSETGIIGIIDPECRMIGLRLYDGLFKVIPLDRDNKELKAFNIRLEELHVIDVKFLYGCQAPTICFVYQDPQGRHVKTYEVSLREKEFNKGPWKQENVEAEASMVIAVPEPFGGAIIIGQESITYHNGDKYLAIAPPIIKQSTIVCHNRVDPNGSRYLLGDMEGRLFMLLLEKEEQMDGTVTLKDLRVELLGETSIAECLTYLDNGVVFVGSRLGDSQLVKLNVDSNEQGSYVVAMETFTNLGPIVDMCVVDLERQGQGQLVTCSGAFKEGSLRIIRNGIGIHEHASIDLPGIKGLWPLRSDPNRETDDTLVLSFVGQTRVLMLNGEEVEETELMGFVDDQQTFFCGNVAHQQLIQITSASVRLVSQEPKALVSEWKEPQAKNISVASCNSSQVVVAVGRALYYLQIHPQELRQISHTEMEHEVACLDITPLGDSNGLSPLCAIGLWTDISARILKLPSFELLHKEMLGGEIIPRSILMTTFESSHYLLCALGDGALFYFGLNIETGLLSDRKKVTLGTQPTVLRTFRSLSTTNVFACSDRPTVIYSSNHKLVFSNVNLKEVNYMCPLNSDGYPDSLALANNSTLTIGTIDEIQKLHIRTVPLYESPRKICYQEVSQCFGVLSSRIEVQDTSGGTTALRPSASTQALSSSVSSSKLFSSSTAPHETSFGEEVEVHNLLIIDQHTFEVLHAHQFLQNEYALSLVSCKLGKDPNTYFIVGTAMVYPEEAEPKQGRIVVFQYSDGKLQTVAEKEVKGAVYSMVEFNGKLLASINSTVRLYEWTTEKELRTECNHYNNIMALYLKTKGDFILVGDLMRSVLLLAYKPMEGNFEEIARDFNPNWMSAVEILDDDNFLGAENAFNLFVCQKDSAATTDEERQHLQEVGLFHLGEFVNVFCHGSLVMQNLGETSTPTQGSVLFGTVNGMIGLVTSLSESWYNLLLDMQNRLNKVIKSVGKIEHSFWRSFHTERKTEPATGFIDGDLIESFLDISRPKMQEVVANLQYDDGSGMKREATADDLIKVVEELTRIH
Sequence of IKZF1 Ikaros (Q13422 whole entry): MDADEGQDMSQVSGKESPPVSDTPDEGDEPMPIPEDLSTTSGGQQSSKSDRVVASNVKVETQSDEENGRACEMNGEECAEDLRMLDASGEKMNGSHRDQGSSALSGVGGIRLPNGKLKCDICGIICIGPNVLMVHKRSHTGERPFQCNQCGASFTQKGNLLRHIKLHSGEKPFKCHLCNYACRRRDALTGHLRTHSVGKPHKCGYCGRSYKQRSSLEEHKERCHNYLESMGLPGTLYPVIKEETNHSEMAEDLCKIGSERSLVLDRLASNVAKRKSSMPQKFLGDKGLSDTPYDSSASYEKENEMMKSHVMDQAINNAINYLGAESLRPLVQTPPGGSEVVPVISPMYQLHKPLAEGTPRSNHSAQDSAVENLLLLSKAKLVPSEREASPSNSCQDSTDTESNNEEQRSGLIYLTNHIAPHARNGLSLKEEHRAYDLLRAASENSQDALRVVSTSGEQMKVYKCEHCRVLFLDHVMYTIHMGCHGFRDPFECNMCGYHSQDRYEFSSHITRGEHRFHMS
Sequence of IKZF1 Ikaros (Q96SW2 whole entry): as the sequence (Q96SW2 whole entry) above
Sequence of IKZF1 Ikaros (Q16531 whole entry partner): as the sequence (Q16531 whole entry partner) above

Dmax (IKZF1 Ikaros; Regulatory T cell, read-out: IKZF1 Ikaros max % deg. observed): 62% | DC50 (IKZF1 Ikaros; concentration reducing protein level by 50% compared to DMSO alone): 194 nM | Dmax (IKZF3 Aiolos; summary table, Human CD8+ T Cell Reprogramming Assay (Table D-1), read-out: IKZF3 Aiolos max % deg. observed (Table E)): 80 to 84% | DC50 (IKZF3 Aiolos; CD8+ T cells, human PBMC, concentration reducing protein level by 50% compared to DMSO alone): 33 to 36 nM | Dmax (IKZF3 Aiolos; CD8+ T cells, human PBMC, read-out: IKZF3 Aiolos Maximum Observed Degradation): 80 to 84% | Dmax (IKZF3 Aiolos; human, text summary of Table D-1, read-out: decreased the level of IKZF3 (Aiolos)): ≥ 80%
SMILES: Nc1nc(-c2ccc3c(c2F)CN(C2CCC(=O)NC2=O)C3=O)ccc1CN1CC(C2CCC(F)(F)CC2)C1 (stereo not drawn) [Example 1, 3-(5-(6-Amino-5-((3-(4,4-difluorocyclohexyl)azetidin-1-yl)methyl)pyridin-2-yl)-4-fluoro-1-oxoisoindolin-2-yl) piperidine-2,6-dione]
